Where two headings read alike, the source gives them in different places.
Columns and labels:
Format in all cases: in vivo
[1] = tested on: Digitaria sanguinalis (DIGSA); assay: Pre-emergence herbicidal action against DIGSA
Outline: (§1)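 Application rates ran to 320 g/ha or lower, with several dosages tested on the same weeds. The compound, as wettable powder or emulsion concentrate, is sprayed pre-emergence onto soil over sown seeds; greenhouse growth follows, and effect is rated visually after roughly 3 weeks.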

Brassica napus (BRSNW) = conditions: crop plant compatibility, in comparison to untreated controls
Outline: (§2)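 Crop injury rated visually in percent against untreated plants roughly 3 weeks after treatment (0% no effect, 100% plants dead). Compounds, as WP or EC with 0.5% additive in 600 l/ha water, were applied to the covering soil right after sowing; greenhouse growth. Suffixes a, b, c denote different dosages.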

Glycine max (GLXMA) = conditions: crop plant compatibility
Outline: as §2

Oryza sativa (ORYSA) [2] = conditions: crop plant compatibility; for Pre-emergence action against ORYSA in %: in comparison to untreated controls
Outline: as §2

[3] = tested on: Triticum aestivum (TRZAS); conditions: crop plant compatibility
Outline: as §2

Zea mays (ZEAMX) [4] = conditions: crop plant compatibility; for Pre-emergence action against ZEAMX in %: in comparison to untreated controls
Outline: as §2

[5] = tested on: Amaranthus retroflexus (AMARE); assay: Post-emergence herbicidal action against AMARE; conditions: 320 g/ha, visual rating about 3 weeks after treatment
Outline: (§3)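 Doses of 320 g/ha or lower, suffixes a, b and c marking different dosages, were applied post-emergence at the one-leaf stage in 600 l/ha water with 0.5% additive. Damage was assessed visually after about 3 weeks in the greenhouse.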

[6] = tested on: Verconica persica (VERPE); assay: Post-emergence herbicidal action against VERPE; conditions: 320 g/ha, VERPE
Outline: as §3

Oryza sativa (ORYSA) [7] = conditions: crop plant compatibility
Outline: (§4)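 Test crops were treated 2 to 3 weeks after sowing, once they reached one leaf, by spraying compound in water with 0.5% additive at 600 l/ha. Visual scoring compared them with untreated controls roughly 3 weeks on, and appendices a, b and c denote different doses.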

[8] = tested on: Triticum aestivum (TRZAS); conditions: crop plant compatibility, 80 g/ha, effect vs untreated controls
Outline: as §4

Zea mays (ZEAMX) [9] = conditions: for Post-emergence action against ZEAMX in %: crop plant compatibility, effect vs untreated controls
Outline: as §4

[10] = tested on: Alopecurus myosuroides (ALOMY); assay: Pre-emergence herbicidal action against ALOMY; conditions: scored visually after about 3 weeks, 100% = plants have died
Outline: as §1

[11] = tested on: Amaranthus retroflexus (AMARE); assay: Pre-emergence herbicidal action against AMARE; conditions: 320 g/ha, visual scoring after about 3 weeks vs untreated controls
Outline: as §1

Avena fatua (AVEFA) [12] = assay: Pre-emergence herbicidal action against AVEFA; conditions: 320 g/ha, visual scoring after about 3 weeks vs untreated controls
Outline: as §1

[13] = tested on: Echinochloa crus-galli (ECHCG); assay: Pre-emergence herbicidal action against ECHCG; conditions: dosage 320 g/ha
Outline: as §1

Lolium rigidum (LOLRI) [14] = assay: Pre-emergence herbicidal action against LOLRI; conditions: dosage 320 g/ha
Outline: as §1

[15] = tested on: Matricaria inodora (MATIN); assay: Pre-emergence herbicidal action against MATIN; conditions: dosage 320 g/ha
Outline: as §1

[16] = tested on: Polygonum convolvulus (POLCO); assay: Pre-emergence herbicidal action against POLCO
Outline: as §1

Setaria viridis (SETVI) [17] = assay: Pre-emergence herbicidal action against SETVI
Outline: as §1

[18] = tested on: Verconica persica (VERPE); assay: Pre-emergence herbicidal action against VERPE; conditions: dosage 320 g/ha
Outline: as §1

Viola tricolor (VIOTR) [19] = assay: Pre-emergence herbicidal action against VIOTR; conditions: 320 g/ha, Viola tricolor
Outline: as §1

[20] = tested on: Alopecurus myosuroides (ALOMY); assay: Post-emergence herbicidal action against ALOMY; conditions: visual rating about 3 weeks after treatment vs untreated controls (100% = plants have died, 0% = like control plants)
Outline: as §3

Avena fatua (AVEFA) [21] = assay: Post-emergence herbicidal action against AVEFA; conditions: visual rating about 3 weeks after treatment
Outline: as §3

[22] = tested on: Digitaria sanguinalis (DIGSA); assay: Post-emergence herbicidal action against DIGSA; conditions: visual rating about 3 weeks after treatment
Outline: as §3

[23] = tested on: Echinochloa crus-galli (ECHCG); assay: Post-emergence herbicidal action against ECHCG; conditions: dosage 320 g/ha
Outline: as §3

Lolium rigidum (LOLRI) [24] = assay: Post-emergence herbicidal action against LOLRI; conditions: dosage 320 g/ha
Outline: as §3

[25] = tested on: Pharbitis purpurea (PHBPU); assay: Post-emergence herbicidal action against PHBPU; conditions: dosage 320 g/ha
Outline: as §3

Setaria viridis (SETVI) [26] = assay: Post-emergence herbicidal action against SETVI
Outline: as §3

Viola tricolor (VIOTR) [27] = assay: Post-emergence herbicidal action against VIOTR; conditions: 320 g/ha
Outline: as §3

[28] = pre-emergence, 80 g/ha, in comparison to untreated controls
[29] = 80 g/ha, effect in comparison to untreated controls
[30] = 20 g/ha, effect vs untreated controls

## COC(=O)C=CC(C)NC(=O)COc1nn(-c2ccccn2)c(-c2ccc(F)nc2)c1Br (stereo not drawn) [Example I-345]
[1]; dosage 320 g/ha
  Pre-emergence action against DIGSA in %: 90%
Brassica napus (BRSNW); 80 g/ha
  Pre-emergence action against BRSNW in %: 20%
Glycine max (GLXMA); [28]
  Pre-emergence action against GLXMA in %: 0%
Oryza sativa (ORYSA) [2]; 80 g/ha
  Pre-emergence action against ORYSA in %: 10%
Oryza sativa (ORYSA) [2]; 320 g/ha
  Pre-emergence action against ORYSA in %: 20%
[3]; [28]
  Pre-emergence action against TRZAS in %: 10%
Zea mays (ZEAMX) [4]; 80 g/ha
  Pre-emergence action against ZEAMX in %: 0%
Zea mays (ZEAMX) [4]; 320 g/ha
  Pre-emergence action against ZEAMX in %: 10%
[5]
  Post-emergence action against AMARE in %: 80%
[6]
  Post-emergence action against VERPE in %: 80%
Oryza sativa (ORYSA) [7]; [29]
  Post-emergence action against ORYSA in %: 20%
[8]
  Post-emergence action against TRZAS in %: 10%
Zea mays (ZEAMX) [9]; 80 g/ha
  Post-emergence action against ZEAMX in %: 0%
Zea mays (ZEAMX) [9]; 320 g/ha
  Post-emergence action against ZEAMX in %: 10%

## COC(=O)[C@@H](C)Oc1nn(-c2ccc(F)cn2)c(-c2ccc(F)nc2)c1Br [Example I-11]
[10]; 80 g/ha
  Pre-emergence action against ALOMY: 90%
[10]; 320 g/ha
  Pre-emergence action against ALOMY: 100%
[11]
  Pre-emergence action against AMARE in %: 100%
Avena fatua (AVEFA) [12]
  Pre-emergence action against AVEFA in %: 90%
[1]; 80 g/ha, visual scoring after about 3 weeks vs untreated controls
  Pre-emergence action against DIGSA in %: 100%
[1]; dosage 320 g/ha
  Pre-emergence action against DIGSA in %: 100%
[13]
  Pre-emergence action against ECHCG in %: 80%
Lolium rigidum (LOLRI) [14]
  Pre-emergence action against LOLRI in %: 100%
[15]
  Pre-emergence action against MATIN in %: 90%
[16]; dosage 80 g/ha
  Pre-emergence action against POLCO in %: 90%
[16]; dosage 320 g/ha
  Pre-emergence action against POLCO in %: 90%
Setaria viridis (SETVI) [17]; dosage 80 g/ha
  Pre-emergence action against SETVI in %: 90%
Setaria viridis (SETVI) [17]; dosage 320 g/ha
  Pre-emergence action against SETVI in %: 100%
[18]
  Pre-emergence action against VERPE in %: 90%
Viola tricolor (VIOTR) [19]
  Pre-emergence action against VIOTR in %: 100%
Brassica napus (BRSNW); 20 g/ha
  Pre-emergence action against BRSNW in %: 10%
Brassica napus (BRSNW); 80 g/ha
  Pre-emergence action against BRSNW in %: 20%
Glycine max (GLXMA); [30]
  Pre-emergence action against GLXMA: 10%
Oryza sativa (ORYSA) [2]; [30]
  Pre-emergence action against ORYSA: 0%
Oryza sativa (ORYSA) [2]; 80 g/ha
  Pre-emergence action against ORYSA in %: 20%
[3]; [30]
  Pre-emergence action against TRZAS: 0%
Zea mays (ZEAMX) [4]; [30]
  Pre-emergence action against ZEAMX: 10%
Zea mays (ZEAMX) [4]; 80 g/ha
  Pre-emergence action against ZEAMX in %: 10%
[20]; 80 g/ha
  Post-emergence action against ALOMY in %: 90%
[20]; 320 g/ha
  Post-emergence action against ALOMY in %: 90%
Avena fatua (AVEFA) [21]; 80 g/ha
  Post-emergence action against AVEFA in %: 80%
Avena fatua (AVEFA) [21]; 320 g/ha
  Post-emergence action against AVEFA in %: 90%
[22]; 80 g/ha
  Post-emergence action against DIGSA in %: 90%
[22]; 320 g/ha
  Post-emergence action against DIGSA in %: 90%
[23]
  Post-emergence action against ECHCG in %: 80%
Lolium rigidum (LOLRI) [24]
  Post-emergence action against LOLRI in %: 80%
[25]
  Post-emergence action against PHBPU in %: 90%
Setaria viridis (SETVI) [26]; dosage 80 g/ha
  Post-emergence action against SETVI in %: 80%
Setaria viridis (SETVI) [26]; dosage 320 g/ha
  Post-emergence action against SETVI in %: 90%
[6]
  Post-emergence action against VERPE in %: 80%
Viola tricolor (VIOTR) [27]
  Post-emergence action against VIOTR in %: 80%
Oryza sativa (ORYSA) [7]; [30]
  Post-emergence action against ORYSA in %: 0%
Oryza sativa (ORYSA) [7]; [29]
  Post-emergence action against ORYSA in %: 0%
Oryza sativa (ORYSA) [7]; 320 g/ha, effect in comparison to untreated controls
  Post-emergence action against ORYSA in %: 10%
Zea mays (ZEAMX) [9]; 20 g/ha, ZEAMX, effect in comparison to untreated controls
  Post-emergence action against ZEAMX in % (crop plant compatibility): 10%
